# Test results: ChEMBL document CHEMBL4393743, “Anti-tumor activity evaluation of novel tubulin and HDAC dual-targeting inhibitors” (Bioorg Med Chem Lett, 2019)
# What was measured:
# [1] = system: A549; test: Induction of apoptosis in human A549 cells assessed as early apoptotic cells at 0.3 uM incubated for 72 hrs by Annexin V-FITC/propidium iodide-staining based flow cytometric analysis (reference value: 1.8%); type: functional
# [2] = target: T1, Protein deacetylase HDAC6 (Homo sapiens, UniProt Q9UBN7); test: Inhibition of HDAC6 (unknown origin) using Boc-Lys(Ac)-AMC as substrate incubated for 60 mins by fluorescence assay
# T1 sequence (Q9UBN7 whole entry): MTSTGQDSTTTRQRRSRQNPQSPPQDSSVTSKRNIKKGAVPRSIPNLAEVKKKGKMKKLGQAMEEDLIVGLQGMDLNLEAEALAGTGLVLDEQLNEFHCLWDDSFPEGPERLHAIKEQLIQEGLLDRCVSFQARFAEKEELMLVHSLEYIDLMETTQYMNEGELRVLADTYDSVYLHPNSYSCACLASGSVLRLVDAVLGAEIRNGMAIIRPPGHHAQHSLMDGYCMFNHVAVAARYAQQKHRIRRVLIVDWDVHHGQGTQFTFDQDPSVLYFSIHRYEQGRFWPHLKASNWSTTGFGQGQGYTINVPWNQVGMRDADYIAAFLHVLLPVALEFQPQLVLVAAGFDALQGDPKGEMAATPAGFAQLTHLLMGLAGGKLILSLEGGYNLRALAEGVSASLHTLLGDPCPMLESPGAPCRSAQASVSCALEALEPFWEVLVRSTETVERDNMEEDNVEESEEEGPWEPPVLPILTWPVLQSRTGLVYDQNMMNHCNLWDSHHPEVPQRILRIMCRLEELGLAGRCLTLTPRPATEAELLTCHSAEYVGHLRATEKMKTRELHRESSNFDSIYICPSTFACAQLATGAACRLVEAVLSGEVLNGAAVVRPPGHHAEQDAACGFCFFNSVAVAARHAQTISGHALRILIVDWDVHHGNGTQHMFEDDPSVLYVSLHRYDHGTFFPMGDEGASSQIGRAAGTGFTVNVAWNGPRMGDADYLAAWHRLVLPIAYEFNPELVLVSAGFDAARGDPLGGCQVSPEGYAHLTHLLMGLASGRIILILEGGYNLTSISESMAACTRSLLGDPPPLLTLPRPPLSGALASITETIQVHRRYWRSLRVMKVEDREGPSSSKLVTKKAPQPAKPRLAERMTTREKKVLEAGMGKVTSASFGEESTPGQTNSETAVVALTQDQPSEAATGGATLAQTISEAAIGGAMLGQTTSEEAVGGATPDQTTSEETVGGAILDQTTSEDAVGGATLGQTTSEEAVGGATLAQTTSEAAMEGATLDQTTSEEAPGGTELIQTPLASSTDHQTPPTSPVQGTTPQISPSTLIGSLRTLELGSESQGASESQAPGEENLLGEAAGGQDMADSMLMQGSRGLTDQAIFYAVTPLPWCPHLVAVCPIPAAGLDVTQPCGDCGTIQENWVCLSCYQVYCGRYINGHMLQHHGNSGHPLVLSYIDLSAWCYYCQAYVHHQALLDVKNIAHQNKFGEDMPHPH
# [3] = system: LoVo; test: Antiproliferative activity against human LoVo cells assessed as cell growth inhibition incubated for 72 hrs by MTT assay; type: functional, cell-based
# [4] = system: A549; test: Induction of cell cycle arrest in human A549 cells assessed as accumulation at S phase at 3 uM incubated for 36 hrs by propidium iodide staining based flow cytometry (reference value: 16.66%); type: functional
# [5] = system: A549; test: Induction of apoptosis in human A549 cells assessed as early apoptotic cells at 0.1 uM incubated for 72 hrs by Annexin V-FITC/propidium iodide-staining based flow cytometric analysis (reference value: 1.8%); type: functional
# [6] = system: A549; test: Induction of apoptosis in human A549 cells assessed as early apoptotic cells at 10 uM incubated for 72 hrs by Annexin V-FITC/propidium iodide-staining based flow cytometric analysis (reference value: 1.8%); type: functional
# [7] = system: A549; test: Induction of cell cycle arrest in human A549 cells assessed as accumulation at G2/M phase at 0.1 uM incubated for 36 hrs by propidium iodide staining based flow cytometry (reference value: 10.83%); type: functional
# [8] = target: Histone deacetylase (Homo sapiens) (UniProt Q13547+O15379+Q9UBN7+Q92769+Q9UQL6+Q8WUI4+Q9BY41+Q96DB2+P56524+Q9UKV0+Q969S8); conditions: HeLa, at 1 µM;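 further: test system was nuclear extract prepared from HeLa cells rather than intact cells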
# Description: Inhibition of HDAC in human HeLa cell nuclear extracts at 1 uM
# [9] = target: Tubulin; test: Inhibition of tubulin polymerization (unknown origin) by spectrophotometric method; type: protein-complex assay, Homo sapiens
# [10] = system: A549; test: Induction of apoptosis in human A549 cells assessed as live cells at 10 uM incubated for 72 hrs by Annexin V-FITC/propidium iodide-staining based flow cytometric analysis (reference value: 89.8%); type: functional
# [11] = system: A549; test: Induction of cell cycle arrest in human A549 cells assessed as accumulation at G0/G1 phase at 0.3 uM incubated for 36 hrs by propidium iodide staining based flow cytometry (reference value: 72.51%); type: functional
# [12] = system: A549; test: Induction of apoptosis in human A549 cells assessed as late apoptotic cells at 10 uM incubated for 72 hrs by Annexin V-FITC/propidium iodide-staining based flow cytometric analysis (reference value: 5.69%); type: functional
# [13] = system: A549; test: Induction of cell cycle arrest in human A549 cells assessed as accumulation at G0/G1 phase at 10 uM incubated for 36 hrs by propidium iodide staining based flow cytometry (reference value: 72.51%); type: functional
# [14] = system: A549; test: Induction of apoptosis in human A549 cells assessed as necrotic cells at 10 uM incubated for 72 hrs by Annexin V-FITC/propidium iodide-staining based flow cytometric analysis (reference value: 2.76%); type: functional
# [15] = system: A549; test: Induction of cell cycle arrest in human A549 cells assessed as accumulation at G0/G1 phase at 3 uM incubated for 36 hrs by propidium iodide staining based flow cytometry (reference value: 72.51%); type: functional
# [16] = system: MCF7; test: Antiproliferative activity against human MCF7 cells assessed as cell growth inhibition incubated for 72 hrs by MTT assay; type: functional, cell-based; conditions: MCF7, 72 h
# [17] = system: A549; test: Induction of cell cycle arrest in human A549 cells assessed as accumulation at G2/M phase at 3 uM incubated for 36 hrs by propidium iodide staining based flow cytometry (reference value: 10.83%); type: functional
# [18] = system: A549; test: Induction of apoptosis in human A549 cells assessed as late apoptotic cells at 0.1 uM incubated for 72 hrs by Annexin V-FITC/propidium iodide-staining based flow cytometric analysis (reference value: 5.69%); type: functional
# [19] = system: A549; test: Antiproliferative activity against human A549 cells assessed as cell growth inhibition incubated for 72 hrs by MTT assay; type: functional, cell-based; conditions: A549, 72 h
# [20] = system: A549; test: Induction of apoptosis in human A549 cells assessed as late apoptotic cells at 0.3 uM incubated for 72 hrs by Annexin V-FITC/propidium iodide-staining based flow cytometric analysis (reference value: 5.69%); type: functional
# [21] = system: HCT-116; test: Antiproliferative activity against human HCT116 cells assessed as cell growth inhibition incubated for 72 hrs by MTT assay; type: functional, cell-based; conditions: HCT-116, 72 h
# [22] = system: NCI-H226; test: Antiproliferative activity against human NCI-H226 cells assessed as cell growth inhibition incubated for 72 hrs by MTT assay; type: functional, cell-based; conditions: NCI-H226, 72 h
compound,measurement,setting,value
COc1ccc(/C=C(\C)C(=O)c2cc(OC)c(OC)c(OC)c2)cc1OCCCC(=O)NO,Activity,[1],7.73%
same,IC50,[2],470 nM
same,IC50,[3],4.88 µM
same,Activity,[4],10.18%
same,Activity,[5],4.25%
same,Activity,[6],8.81%
same,Activity,[7],9.47%
same,inhibition,[8],19.9%
same,IC50,[9],54.5 µM
same,Activity,[10],54.7%
same,Activity,[11],46.23%
same,Activity,[12],28.5%
same,Activity,[13],1.57%
same,Activity,[14],8%
same,Activity,[15],9.13%
same,IC50,[16],7.33 µM
same,Activity,[17],80.69%
same,Activity,[18],9.41%
same,IC50,[19],550 nM
same,Activity,[20],10.1%
same,IC50,[21],7.46 µM
same,IC50,[22],7.54 µM
